Patent EP0207358A2, “Growth-promoting agent” (BAYER AG, priority 1985, dated 1987)

tested on: Weibliche Laborratten; assay: Rat feeding trial (Ratten-Fütterungsversuch); assay type: in vivo; conditions: female SPF Wistar rats 90-110 g; active substance mixed into standard rat feed ad lib; 13-day trial; compared with control group on feed without active substance
Source text: Weibliche Laborratten 90-110 g schwer vom Typ SPF Wistar (Züchtung Hagemann) werden ad lib mit Standard-Rattenfutter, das mit der gewünschten Menge Wirkstoff versetzt ist, gefüttert. Jeder Versuchsansatz wird mit Futter der identischen Charge durchgeführt, so daß Unterschiede in der Zusammensetzung des Futters die Vergleichbarkeit der Ergebnisse nicht beeinträchtigen können.
Die Ratten erhalten Wasser ad lib.
Jeweils 12 Ratten bilden eine Versuchsgruppe und werden mit Futter, das mit der gewünschten Menge Wirkstoff versetzt ist, gefüttert. Eine Kontrollgruppe erhält Futter ohne Wirkstoff. Das durchschnittliche Körpergewicht sowie die Streuung in den Körpergewichten der Ratten ist in jeder Versuchsgruppe gleich, so daß eine Vergleichbarkeit der Versuchsgruppen untereinander gewährleistet ist.
Gewichtszunahme und Futterverbrauch werden während des 13-tägigen Versuches bestimmt.

Row | SMILES | Gewichtszunahmen im Vergleich zur Kontrolle
1 | CCOC(=O)c1c(NC(=O)N[C@@H](CCSC)C(=O)OC)sc(-c2ccccc2)c1C [Beispiel 1] | deutliche Gewichtszunahmen
2 | CC[C@H](C)[C@H](NC(=O)Nc1cccc2ccccc12)C(=O)O [Beispiel 2] | deutliche Gewichtszunahmen
3 | COC(=O)[C@H](Cc1c[nH]c2ccccc12)NC(=O)Nc1cccc2ccccc12 [Beispiel 3] | deutliche Gewichtszunahmen
